Laboratory results from US6645983B1, “Pharmaceutical compositions comprising 4-quinolones for treating cancers” (Laboratoire L. Lafon, priority 1999, dated 2003).

Experiments:
SW1088 = assay: MTT test, cytotoxic activity on non-clonogenic cell lines; assay type: cell-based; settings: Homo sapiens, 10^−5 M, 72 hours incubation, MTT, mean value, read-out: mean optical density, expressed as percentage relative to the mean optical density under the control condition (100%)
In short: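 Human astrocytoma SW1088 cells seeded, grown 24 h at 37° C, 5% CO2, then exposed to compounds at 10^−5 to 10^−10 M versus solvent control. Viability by MTT reduction: 3 h MTT incubation, formazan dissolved in DMSO and read by spectrophotometry.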

A549 = assay: as above; assay type: cell-based; settings: Homo sapiens, 10^−5 M, 72 hours incubation, MTT, mean value, read-out: mean optical density, expressed as percentage relative to the mean optical density under the control condition (100%)
In short: (§1)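 Compounds span 10^−5 to 10^−10 M, with solvent-treated wells as control, and the formazan is quantified by absorbance after DMSO solubilization.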

PC-3 = assay: as above; assay type: cell-based; settings: Homo sapiens, 10^−5 M, 72 hours incubation, MTT, mean value, read-out: mean optical density, expressed as percentage relative to the mean optical density under the control condition (100%)
In short: as §1

HCT-15 = assay: as above; assay type: cell-based; settings: Homo sapiens, HCT-16, 10^−5 M, 72 hours incubation, MTT, mean value, read-out: mean optical density, expressed as percentage relative to the mean optical density under the control condition (100%)
In short: as §1

A-427 = assay: as above; assay type: cell-based; settings: Homo sapiens, 10^−5 M, 72 hours incubation, MTT, mean value, read-out: mean optical density, expressed as percentage relative to the mean optical density under the control condition (100%)
In short: as §1

U-87MG = assay: as above; assay type: cell-based; settings: Homo sapiens; U-87MG; 10^−5 M; 72 hours incubation; MTT; mean value; read-out: mean optical density, expressed as percentage relative to the mean optical density under the control condition (100%)
In short: as §1

U-373MG = assay: as above; assay type: cell-based; settings: Homo sapiens, U373 MG; U-373MG; 10^−5 M; 72 hours incubation; MTT; mean value; read-out: mean optical density, expressed as percentage relative to the mean optical density under the control condition (100%)
In short: as §1

T-47D = assay: as above; assay type: cell-based; settings: Homo sapiens, T47D; T-47D; 10^−5 M; 72 hours incubation; MTT; mean value; read-out: mean optical density, expressed as percentage relative to the mean optical density under the control condition (100%)
In short: as §1

LoVo = assay: as above; assay type: cell-based; settings: Homo sapiens, 10^−5 M, 72 hours incubation, MTT, mean value, read-out: mean optical density, expressed as percentage relative to the mean optical density under the control condition (100%)
In short: as §1

MCF7 = assay: as above; assay type: cell-based; settings: Homo sapiens, 10^−5 M, 72 hours incubation, MTT, mean value, read-out: mean optical density, expressed as percentage relative to the mean optical density under the control condition (100%)
In short: as §1

[1] = Determination of the maximum tolerated dose (MTD); settings: B6D2F1/Jico, mouse, in vivo, ip; single intraperitoneal administration, doses 2.5 to 160 mg/kg, survival over 14 days
In short: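 Mice were 4- to 6-week-old B6D2F1/Jico. They received a single intraperitoneal dose of 2.5 to 160 mg/kg, and survival and body weight were followed for 14 days. MTD is given in mg/kg and is capped at 160 mg/kg by default.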

T24 = assay: MTT test, cytotoxic activity on non-clonogenic cell lines; assay type: cell-based; settings: Homo sapiens, T-24; T24; 10^−5 M; 72 hours incubation; MTT; mean value; read-out: mean optical density, expressed as percentage relative to the mean optical density under the control condition (100%)
In short: (§2)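 Human bladder cancer lines were seeded at 20 000–50 000 cells/ml and, after 24 h, exposed to compounds at 10^−5 to 10^−10 M against a solvent control. Formazan was dissolved in DMSO and viability was read by spectrophotometric optical density.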

J82 = assay: as above; assay type: cell-based; settings: Homo sapiens, 10^−5 M, 72 hours incubation, MTT, mean value, read-out: mean optical density, expressed as percentage relative to the mean optical density under the control condition (100%)
In short: as §2

Structure (SMILES) | viability at 10 µM (SW1088) | viability at 10 µM (A549) | viability at 10 µM (PC-3) | viability at 10 µM (HCT-15) | viability at 10 µM (A-427) | viability at 10 µM (U-87MG) | viability at 10 µM (U-373MG) | viability at 10 µM (T-47D) | viability at 10 µM (LoVo) | viability at 10 µM (MCF7) | MTD at 14 day [1] | viability at 10 µM (T24) | viability at 10 µM (J82)
COc1ccc(-c2cn(C)c3cc(OC)cc(NCCN(C)C)c3c2=O)cc1 [CRL8462, 5-{[(Dimethylamino)ethyl]amino}-7-methoxy-3-(4-methoxyphenyl)-1-methyl-1,4-dihydro-4-quinolinone] | 105% | 86.8% | 84% | 77.4% | 77.1% | 195% | 111% | 92.2% | 84.6% | 89.4% | > 160 mg/kg | 111% | 105%
COc1ccc(-c2cn(C)c3cc(OC)ccc3c2=O)cc1 [CRL8464, 7-Methoxy-3-(4-methoxyphenyl)-1-methyl-1,4-dihydro-4-quinolinone] | 95.6% | 91.3% | 97.1% | 111% | 102% | 105% | 118% | 110% | 101% | 99.8% | > 160 mg/kg | 105% | 95.4%
CCOC(=O)Cn1cc(-c2ccc(OC)cc2)c(=O)c2ccc(OC)cc21 [CRL8465, Ethyl 2-[7-methoxy-3-(4-methoxyphenyl)-4-oxo-1,4-dihydro-1-quinolinyl]acetate] | 89.8% | 80.1% | 96.9% | 165% | 85.4% | 105% | 100% | 94.4% | 110% | 94.3% | > 160 mg/kg | 91.2% | 93.6%
CCN(CC)C(=O)Cn1cc(-c2ccc(OC)cc2)c(=O)c2ccc(OC)cc21 [CRL8466, N,N-Diethyl-2-[7-methoxy-3-(4-methoxyphenyl)-4-oxo-1,4-dihydro-1-quinolinyl]acetamide] | 102% | 101% | 102% | 96.1% | 97.5% | 97.2% | 59.4% | 95.2% | 98.9% | 108% | > 160 mg/kg | 69.5% | 93.1%
COc1ccc(-c2cn(CCC#N)c3cc(OC)ccc3c2=O)cc1 [CRL8467, 3-[7-Methoxy-3-(4-methoxyphenyl)-4-oxo-1,4-dihydro-1-quinolinyl]propanenitrile] | 101% | 90.8% | 98.4% | 108% | 90% | 95.3% | 108% | 100% | 95.8% | 98.3% | > 160 mg/kg | 94.6% | 96.3%
CCOC(=O)CCn1cc(-c2ccc(OC)cc2)c(=O)c2ccc(OC)cc21 [CRL8468, Ethyl 3-[7-methoxy-3-(4-methoxyphenyl)-4-oxo-1,4-dihydro-1-quinolinyl]propanoate] | 104% | 93.6% | 95% | 111% | 69.7% | 92.7% | 107% | 92.2% | 97.2% | 79.1% | > 160 mg/kg | 98.5% | 91.9%
